Data set [1] deals with mice. The experiment in a line: Acute toxicity test on mice (LD50). Particulars: in words.
Data set [2] can be described thus: Acute toxicity test on mice (LD50). The settings on record: mouse, in vivo.
For data set [3], the system named is mice. The experiment in a line: Tetrabenazine catalepsy test on mice, influence on the duration of catalepsy. The data set is classed as in vivo, mouse. The settings on record: for Effect in tetrabenazine catalepsy test compared with imipramine: in words. The procedure:
(§1) The pharmacological activity of the substance according to the invention was investigated in the tetrabenazine catalepsy test and in the reserpine antagonism test at the mouse.
Mice in groups of 10 animals each were given 15 mg/kg of tetrabenazine i.p. 30 minutes after administration of the test substance. The onset of a cataleptic condition is assessed on a 2-step round cork on to which the animals are placed so that they touch the bottom step with their head and forepaws and the upper step with their hind paws. Such a position is corrected immediately by a normal animal. For assessment, the reaction of the animals is observed every 60 seconds. The inhibition of catatonia is calculated in percentage values in relation to a control group.

Data set [4] concerns isolated guinea-pig intestines. The experiment in a line: Spasmolytic activity on isolated guinea-pig intestines (Magnus). The settings on record: for IC50: Cavia porcellus. As to the method: The compound according to the invention has also been examined for its influenece on coronary circulation and on the heart mechanogram in isolated guinea-pig hearts according to the method of Langendorff (Langendorff, O., Pfluegers Arch. 61 (1895), 219) as well as for its spasmolytic activity on isolated guinea-pig intestines according to the method of Magnus (Magnus, R., Pflugers Arch. 102 (1904), 123). In this latter case, the spasmolytic activity was determined in relation to 0.2 μg/ml of histamine and 100 μg/ml of barium chloride.

Data set [5] relates to isolated guinea-pig heart. In words: Activity on the isolated guinea-pig heart (Langendorff): coronary circulation and contraction level. The settings on record: for Effect on coronary vessels / circulation / Influence on contraction level of the isolated heart: in words.
Data set [6] in a line: Side-effect activities (cardiotoxic, central nervous system, sedation, vegetative nervous system). Particulars: therapeutically relevant doses.
Data set [7] has as its system mice. The settings on record: mouse, in vivo, po.
Data set [8] deals with mice. In words: Reserpine antagonism test on mice. The class given is in vivo, mouse. Particulars: in words.
Description: as §1

Where [9] appears, read: against 0.2 μg/ml histamine, read-out: Spasmolytic activity as ED50 relative to histamine.
[10] abbreviates: against 100 μg/ml barium chloride, read-out: Spasmolytic activity as ED50 relative to BaCl2.

In brackets after ≈: the same amount, converted by molar mass. Like-named read-outs stand apart in the source and are kept apart here.

We go through two molecules from US4221793A, “N,N'-Disubstituted piperazine derivative” (priority 1977, dated 1980).

As to `COc1ccc2oc(C(=O)N3CCN(Cc4ccccc4)CC3)cc2c1` [According to the invention, N-(5-Methoxybenzofuran-2-ylcarbonyl)-N'-benzylpiperazine], the “Toxicity compared with imipramine” value in the data set with mice [1] is listed as “considerably lower toxicity”. In data set [2] (ip), this molecule yielded a median lethal dose (LD50) of 548 mg/kg. In addition, the 50% lethal dose (LD50) in data set [2] (po) was over 4000 mg/kg. Further, the “Change of duration of catalepsy relative to control” value in the data set with mice [3] (20 mg/kg p.o., 20 min post appl., n=40) was -62 ± 26%. Moreover, the “Effect in tetrabenazine catalepsy test compared with imipramine” value with mice [3] is reported as “substantially stronger effect than the comparison substance”. The “Effect in tetrabenazine catalepsy test compared with imipramine” value in the data set with mice [3] (listed as substance according to the invention) is on record as “substantially stronger effect than the commercially available comparison substance, imipramine”. The IC50 in data set [4] (setting [9]) lay within 5 to 10 µg/mL (≈ 14.3 to 28.5 µM). Besides, the IC50 in data set [4] (setting [10]) fell in the range of 5 to 10 µg/mL (≈ 14.3 to 28.5 µM). The Spasmolytic activity entry in data set [4] (in words) is recorded as “only small”. Further, in data set [4] (in words, concluded from spasmolytic activity), the “Influence on the peripheral vegetative nervous system” value is given as “influenced only slightly, if at all”. Besides, the activation at 0.05 mg in data set [5] (Cavia porcellus, dose 50 μg, read-out: Change in coronary circulation) was found to be 39%. The inhibition at 0.05 mg in data set [5] (Cavia porcellus, dose 50 μg, read-out: Influence on contraction level) is 0%. Further, in data set [5], the “Effect on coronary vessels / circulation” value is recorded as “causes a dilation of the coronary vessels” and the “Influence on contraction level of the isolated heart” value is recorded as “does not influence the contraction level of the isolated heart”. Moreover, in data set [6], the Cardiotoxic activity result is listed as “has not shown in therapeutically relevant doses any cardiotoxic”, the “Central nervous system stimulation activity” value is listed as “has not shown”, the “Influence on the vegetative nervous system” value is on record as “has not shown” and the Sedation activity result is “has not shown”. The “Compatibility (tolerability) compared with comparison preparation” value with mice [7] is reported as “more than ten times more compatible than the comparison preparation”. For the same molecule, in the data set with mice [8], the “Activity in reserpine antagonism test compared with comparison substance” value is “substantially equal in activity compared with the comparison substance”.
For `CN(C)CCCN1c2ccccc2CCc2ccccc21` [Imipramine], the values for the IC50 in data set [4] (setting [9]) and in data set [4] (setting [10]) were 0.001 µg/mL (≈ 0.00357 µM) and 0.1 to 1 µg/mL (≈ 0.357 to 3.57 µM), respectively. For the same molecule, in data set [5] (Cavia porcellus, dose 10 μg, first value of pair, read-out: Change in coronary circulation (initial brief increase)), the activation at 0.01 mg was 19%. Further, the inhibition at 0.01 mg in data set [5] (Cavia porcellus, dose 10 μg, read-out: Influence on contraction level) stood at 25%; in data set [5] (Cavia porcellus, dose 10 μg, second value of pair, read-out: Change in coronary circulation (subsequent constriction)), 18%. For the same molecule, the activation at 0.02 mg in data set [5] (Cavia porcellus, dose 20 μg, first value of pair, read-out: Change in coronary circulation (initial brief increase)) is 28%. Moreover, the inhibition at 0.02 mg is 25% in data set [5] (Cavia porcellus, dose 20 μg, read-out: Influence on contraction level) and 29% in data set [5] (Cavia porcellus, dose 20 μg, second value of pair, read-out: Change in coronary circulation (subsequent constriction)). Also, the activation at 0.03 mg in data set [5] (Cavia porcellus, dose 30 μg, first value of pair, read-out: Change in coronary circulation (initial brief increase)) came out at 84%. Besides, the inhibition at 0.03 mg in data set [5] (Cavia porcellus, dose 30 μg, read-out: Influence on contraction level) was found to be 50%; in data set [5] (Cavia porcellus, dose 30 μg, second value of pair, read-out: Change in coronary circulation (subsequent constriction)) it was 22%. Also, the “Effect on coronary vessels / circulation” value in data set [5] is recorded as “causes initially a brief increase in circulation, this then changes to a constriction”. The “Influence on contraction level of the isolated heart” value in data set [5] is reported as “heart damage which is shown by the reduction of the heart contraction”.
